Source: ChEMBL document CHEMBL3864140, “Melanogenesis inhibitory activity of a 7-O-9'-linked neolignan from Alpinia galanga fruit” (Bioorg Med Chem, 2016)

Columns and labels:
[1] = Antimelanogenic activity in theophylline-stimulated mouse B16-4A5 cells assessed as inhibition of melanogenesis at 0.3 uM after 72 hrs relative to control; format: functional; conditions: B16-4A5, 72 h
[2] = Antimelanogenic activity in theophylline-stimulated mouse B16-4A5 cells assessed as inhibition of melanogenesis at 1 uM after 72 hrs relative to control; format: functional; conditions: B16-4A5, 72 h
[3] = Antimelanogenic activity in theophylline-stimulated mouse B16-4A5 cells assessed as inhibition of melanogenesis at 3 uM after 72 hrs relative to control; format: functional; conditions: B16-4A5, 72 h
[4] = Antimelanogenic activity in theophylline-stimulated mouse B16-4A5 cells assessed as inhibition of melanogenesis at 10 uM after 72 hrs relative to control; format: functional; conditions: B16-4A5, 72 h
[5] = Antimelanogenic activity in theophylline-stimulated mouse B16-4A5 cells assessed as inhibition of melanogenesis after 72 hrs relative to control; format: functional, cell-based
[6] = Cytotoxicity against theophylline-stimulated mouse B16-4A5 cells assessed as cell viability at 0.3 uM after 72 hrs by MTT assay relative to control; format: toxicity; conditions: theophylline-stimulated B16-4A5 cells, read-out: Activity
[7] = Cytotoxicity against theophylline-stimulated mouse B16-4A5 cells assessed as cell viability at 1 uM after 72 hrs by MTT assay relative to control; format: toxicity; conditions: theophylline-stimulated B16-4A5 cells, read-out: Activity
[8] = Cytotoxicity against theophylline-stimulated mouse B16-4A5 cells assessed as cell viability at 3 uM after 72 hrs by MTT assay relative to control; format: toxicity; conditions: theophylline-stimulated B16-4A5 cells, read-out: Activity
[9] = Cytotoxicity against theophylline-stimulated mouse B16-4A5 cells assessed as cell viability at 10 uM after 72 hrs by MTT assay relative to control; format: toxicity; conditions: theophylline-stimulated B16-4A5 cells, read-out: Activity
[10] = Downregulation of tyrosinase expression in theophylline-stimulated mouse B16-4A5 cells assessed as ratio of tyrosinase mRNA expression to beta-actin mRNA expression at 3 uM after 72 hrs by qRT-PCR analysis (reference value: […] +/- […]); format: functional, cell-based
[11] = Downregulation of tyrosinase expression in theophylline-stimulated mouse B16-4A5 cells assessed as ratio of tyrosinase mRNA expression to beta-actin mRNA expression at 10 uM after 72 hrs by qRT-PCR analysis (reference value: […] +/- […]); format: functional, cell-based
[12] = Downregulation of TRP1 expression in theophylline-stimulated mouse B16-4A5 cells assessed as ratio of TRP1 mRNA expression to beta-actin mRNA expression at 3 uM after 72 hrs by qRT-PCR analysis (reference value: […] +/- […]); format: functional, cell-based
[13] = Downregulation of TRP1 expression in theophylline-stimulated mouse B16-4A5 cells assessed as ratio of TRP1 mRNA expression to beta-actin mRNA expression at 10 uM after 72 hrs by qRT-PCR analysis (reference value: […] +/- […]); format: functional, cell-based
[14] = Downregulation of TRP2 expression in theophylline-stimulated mouse B16-4A5 cells assessed as ratio of TRP2 mRNA expression to beta-actin mRNA expression at 3 uM after 72 hrs by qRT-PCR analysis (reference value: […] +/- […]); format: functional, cell-based
[15] = Downregulation of TRP2 expression in theophylline-stimulated mouse B16-4A5 cells assessed as ratio of TRP2 mRNA expression to beta-actin mRNA expression at 10 uM after 72 hrs by qRT-PCR analysis (reference value: […] +/- […]); format: functional, cell-based
[16] = Potency index, ratio of arbutin IC50 to compound IC50 for antimelanogenic activity in mouse B16-4A5 cells; format: functional
[17] = Antimelanogenic activity in theophylline-stimulated mouse B16-4A5 cells assessed as inhibition of melanogenesis at 300 uM after 72 hrs relative to control; format: functional; conditions: B16-4A5, 72 h
[18] = Antimelanogenic activity in theophylline-stimulated mouse B16-4A5 cells assessed as inhibition of melanogenesis at 1000 uM after 72 hrs relative to control; format: functional; conditions: B16-4A5, 72 h
[19] = Cytotoxicity against theophylline-stimulated mouse B16-4A5 cells assessed as cell viability at 30 uM after 72 hrs by MTT assay relative to control; format: toxicity; conditions: theophylline-stimulated B16-4A5 cells, read-out: Activity
[20] = Cytotoxicity against theophylline-stimulated mouse B16-4A5 cells assessed as cell viability at 100 uM after 72 hrs by MTT assay relative to control; format: toxicity; conditions: theophylline-stimulated B16-4A5 cells, read-out: Activity
[21] = Cytotoxicity against theophylline-stimulated mouse B16-4A5 cells assessed as cell viability at 300 uM after 72 hrs by MTT assay relative to control; format: toxicity; conditions: theophylline-stimulated B16-4A5 cells, read-out: Activity
[22] = Cytotoxicity against theophylline-stimulated mouse B16-4A5 cells assessed as cell viability at 1000 uM after 72 hrs by MTT assay relative to control; format: toxicity; conditions: theophylline-stimulated B16-4A5 cells, read-out: Activity
cells [23] = conditions: Mus musculus, B16-4A5, 72 h, read-out: INH
Description: Antimelanogenic activity in theophylline-stimulated mouse B16-4A5 cells assessed as inhibition of melanogenesis at 30 uM after 72 hrs relative to control

cells [24] = conditions: Mus musculus, B16-4A5, 72 h, read-out: INH; remark: listed apart in the source

Row | SMILES | inhibition at 0.3 µM [1] [%] | inhibition at 1 µM [2] [%] | inhibition at 3 µM [3] [%] | inhibition at 10 µM [4] [%] | IC50 [5] [µM] | viability at 72 h, 0.3 µM [6] [%] | viability at 72 h, 1 µM [7] [%] | viability at 72 h, 3 µM [8] [%] | viability at 72 h, 10 µM [9] [%] | Ratio [10] | Ratio [11] | Ratio [12] | Ratio [13] | Ratio [14] | Ratio [15] | Ratio IC50 [16] | also measured
1 | C=C[C@@H](OC/C=C/c1ccc(OC(C)=O)cc1)c1ccc(OC(C)=O)cc1 | 10.8 | 31.8 | 71.4 | 137 | 1.9 | 107 | 102 | 81.5 | 29.7 | 0.84 | 0.56 | 0.92 | 0.94 | 1.67 | 0.88 | – | –
2 | C=C[C@H](OC(C)=O)c1ccc(OC(C)=O)c(OC)c1 | -4.9 | 15.3 | 16.8 | 84.4 | 5.6 | 92 | 105 | 101 | 42.3 | 1.1 | 0.8 | 0.52 | 0.29 | 0.89 | 0.88 | >25 - 70 | –
3 | C=CC(OC(C)=O)c1ccc(OC(C)=O)cc1 (racemic) | 5 | 4.4 | 35.1 | 103 | 4.4 | 102 | 104 | 108 | 31.8 | – | – | – | – | – | – | – | –
4 | C=C[C@H](OC(C)=O)c1ccc(OC(C)=O)cc1 [1'-ACETOXYCHAVICOL ACETATE] | 9.3 | 6.2 | 29.8 | 73.1 | 5 | 103 | 102 | 99.9 | 99.9 | 1 | 0.49 | 0.86 | 0.5 | 1.08 | 0.34 | >25 - 70 | –
5 | C=CC(OC/C=C/c1ccc(O)cc1)c1ccc(O)cc1 (racemic) | 26.7 | 43.6 | 50.9 | 77.4 | 3 | 102 | 95.1 | 104 | 105 | – | – | – | – | – | – | – | –
6 | OC[C@H]1O[C@@H](Oc2ccc(O)cc2)[C@H](O)[C@@H](O)[C@@H]1O [ARBUTIN] | – | – | – | – | – | – | – | – | – | – | – | – | – | – | – | – | inhibition at 300 µM [17]: 61.5%; inhibition at 1000 µM [18]: 83.7%; viability at 72 h, 30 µM [19]: 82.4%; viability at 72 h, 100 µM [20]: 78.1%; viability at 72 h, 300 µM [21]: 79.8%; viability at 72 h, 1000 µM [22]: 53.1%; inhibition at 30 µM (cells [23]): 20.4%; inhibition at 100 µM (cells [24]): 38.1%
7 | C=C[C@H](OC/C=C/c1ccc(O)cc1)c1ccc(O)cc1 | 40.4 | 46.4 | 46.4 | 70.5 | 3.3 | 111 | 119 | 120 | 114 | – | – | – | – | – | – | – | –
8 | C=CC(OC/C=C/c1ccc(OC(C)=O)cc1)c1ccc(OC(C)=O)cc1 (racemic) | 10.3 | 32.4 | 57.2 | -5.5 | 2.2 | 105 | 99.3 | 85.2 | 12.9 | 0.77 | 0.6 | 0.79 | 0.81 | 0.86 | 0.81 | – | –
9 | C=C[C@H](OC/C=C/c1ccc(OC(C)=O)cc1)c1ccc(OC(C)=O)cc1 | -5.9 | 10 | 58.5 | 117 | 2.5 | 98.1 | 82.9 | 68.5 | 26.5 | 0.87 | 0.53 | 0.76 | 0.99 | 0.72 | 1.43 | >25 - 70 | –
